The source of these data is patent US12011506B2, “Combination and uses and treatments thereof” (priority 2017, dated 2024).

Where only a bound is given, the exact number is not on record here.

The conditions of data set [1]: human, in vivo.
For data set [2] the following is noted: human, in vivo. This is another data set of the same source.
Data set [3] is described as follows: Excretion after a single oral dose of [14C] dolutegravir. Particulars: single oral dose of [14C] dolutegravir. In kind it is in vivo, human.
Data set [4] is described as follows: Food effect pharmacokinetics: high-fat or moderate-fat meal versus fasted (Tables 20, 21). The source says:
Cmax, AUC0-t, AUC0-∞ and AUClast are standard pharmacokinetic parameters that can be estimated manually or by using modelling software well known in the art, such as the Pharsight WinNonlin package using a non-compartmental model. The general basis for calculation of these quantities is well-known (e.g. see Rowland & Tozer (2010) Clinical Pharmacokinetics and Pharmacodynamics: Concepts and Applications ISBN 978-0781750097, or Jambhekar & Breen (2012) Basic Pharmacokinetics ISBN 978-0853699804). Typically the parameters will be assessed as the average (e.g. geometric or arithmetic mean) from within a group of at least 12 (and normally between 24 and 36) healthy human adults. Parameters should be measured in accordance with standards and practices which would be acceptable to a pharmaceutical regulatory agency such as FDA, EMA, MHLW, or WHO. The values may be based on measurements taken at appropriate intervals following the time of tablet ingestion, such as every hour, or at increasingly sparse sampling intervals, such as 1, 3, 5, 7, 9, 11, 13, 15, 20, and 24 hours after ingestion.

Data set [5] in a line: Dolutegravir oral pharmacokinetics (absorption, steady state, population pharmacokinetic analyses). Format: in vivo, human.
The target of another data set is CYP3A4 (Homo sapiens, UniProt P08684). The conditions noted are these: cited from earlier work.
Data set [6] in a line: Drug interaction trials: effect of dolutegravir on pharmacokinetics of coadministered drugs. The conditions noted are these: No Effect = 1.00.
Excerpt: (§1) These recommendations are based on either drug interaction trials of individual components or predicted interactions due to the expected magnitude of interaction and potential for serious adverse events or loss of efficacy.
The nature of data set [7]: Drug interaction trials: effect of rilpivirine on pharmacokinetics of coadministered drugs. Particulars: No Effect = 1.00.
A short description of data set [8]: Established and other potentially significant drug interactions with JULUCA (effect on concentration). The conditions noted are these: concomitant drug with JULUCA; based on drug interaction trials or predicted interactions. Format: in vivo, human.
Excerpt: as §1
The next data set relates to cytochrome P450 CYP3A. Description: Rilpivirine in vitro oxidative metabolism. In kind it is in vitro ADME. The conditions noted are these: in vitro experiments.
Data set [9] in a line: Excretion after single dose oral administration of [14C] rilpivirine. Format: in vivo, human. The conditions noted are these: single dose oral [14C] rilpivirine. The source says: In feces, unchanged rilpivirine accounted for on average 25% of the administered dose. […] The pharmacokinetic properties of rilpivirine have been evaluated in adult healthy subjects and in adult antiretroviral treatment-naïve HIV-1-infected subjects. Exposure to rilpivirine was generally lower in HIV-1 infected subjects than in healthy subjects.

The nature of data set [10]: Rilpivirine oral pharmacokinetics. In kind it is in vivo, human.
Where [11] appears, read: high-fat meal compared with fasted conditions.
[12] abbreviates: moderate-fat meal compared with fasted conditions.

Chain of CYP3A4 (P08684 whole entry): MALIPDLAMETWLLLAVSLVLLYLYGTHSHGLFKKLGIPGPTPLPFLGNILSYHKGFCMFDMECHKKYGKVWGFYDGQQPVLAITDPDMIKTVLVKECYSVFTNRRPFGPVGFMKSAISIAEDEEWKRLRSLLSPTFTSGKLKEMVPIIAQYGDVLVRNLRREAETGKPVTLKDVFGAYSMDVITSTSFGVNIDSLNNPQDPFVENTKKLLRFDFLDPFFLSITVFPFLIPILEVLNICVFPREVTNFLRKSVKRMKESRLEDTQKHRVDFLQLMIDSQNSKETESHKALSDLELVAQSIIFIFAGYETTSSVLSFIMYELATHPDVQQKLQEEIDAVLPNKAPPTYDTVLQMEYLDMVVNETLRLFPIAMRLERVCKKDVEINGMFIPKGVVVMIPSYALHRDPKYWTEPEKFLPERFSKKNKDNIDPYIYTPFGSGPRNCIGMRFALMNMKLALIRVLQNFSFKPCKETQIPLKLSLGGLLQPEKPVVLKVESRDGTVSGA

Take `CC(=O)Nc1ccc(O)cc1` [Acetaminophen]: in data set [1], the “Rilpivirine AUC, geometric mean ratio with/without coadministered drug” value is recorded as 1.16; the “Rilpivirine Cmax, geometric mean ratio with/without coadministered drug” value is given as 1.09; the “Rilpivirine Cmin, geometric mean ratio with/without coadministered drug” value is listed as 1.26. In data set [2], the “AUC of coadministered drug, geometric mean ratio with/without EDURANT” value (from here on “AUC … geometric mean ratio with/without EDURANT”) was found to be 0.91 and the “Cmax of coadministered drug, geometric mean ratio with/without EDURANT” value (“Cmax … geometric mean ratio with/without EDURANT” for short) worked out at 0.97.
One may read the half-life as the time needed for the level to fall by half in the phase considered. For the molecule `C[C@@H]1CCO[C@H]2Cn3cc(C(=O)NCc4ccc(F)cc4F)c(=O)c(O)c3C(=O)N12` [Dolutegravir, (4R,12aS)—N-[(2,4-difluorophenyl)methyl]-7-hydroxy-4-methyl-6,8-dioxo-3,4,12,12a-tetrahydro-2H-pyrido[5,6]pyrazino[2,6-b][1,3]oxazine-9-carboxamide], in data set [3], the “Renal elimination of unchanged drug” value is reported as “less than 1 % of the dose”, the “Total oral dose excreted in the urine” value is “Thirty-one” and the “Total oral dose excreted unchanged in the feces” value amounted to 53%. Also, the “Increase of AUC(0-∞)” value in data set [4] (human, in vivo) was “approximately 87%”. The “Increase of Cmax” value in data set [4] (moderate- and high-fat meals each, compared with fasted conditions) is “approximately 75%”. Also, in data set [5] (human, plasma, oral, population pharmacokinetic analyses, read-out: Terminal half-life (converted)), the half-life was around 14 h. In addition, in data set [5] (once-daily dosing), the “Time to pharmacokinetic steady state” value is given as at most 5 days. The “Apparent clearance (CL/F)” value in data set [5] (population pharmacokinetic analyses) amounted to 1.0 L per hour. Further, the “Extent as substrate of CYP3A4” value at CYP3A4 was “about 15%”.
Take `C#C[C@]1(O)CC[C@H]2[C@@H]3CCc4cc(O)ccc4[C@H]3CC[C@@]21C` [Ethinyl estradiol]: in data set [6], the “Cmax of coadministered drug, geometric mean ratio with/without dolutegravir” value came to 0.99 and the “Cτ or C24 of coadministered drug, geometric mean ratio with/without dolutegravir” value came to 1.02. Also, the “Cmin of coadministered drug, geometric mean ratio with/without EDURANT” value in data set [7] is on record as 1.09. In data set [2], the “AUC … geometric mean ratio with/without EDURANT” value came out at 1.14 and the “Cmax … geometric mean ratio with/without EDURANT” value came out at 1.17.
As for `COc1ccc2[nH]c([S+]([O-])Cc3ncc(C)c(OC)c3C)nc2c1` (stereo not drawn) [Omeprazole], in data set [8], the “Effect on Concentration of Rilpivirine” value is reported as “↓Rilpivirine”. Besides, in data set [1], the “Rilpivirine AUC, geometric mean ratio with/without coadministered drug” value is given as 0.60; the “Rilpivirine Cmax, geometric mean ratio with/without coadministered drug” value is reported as 0.60; the “Rilpivirine Cmin, geometric mean ratio with/without coadministered drug” value came to 0.67. Moreover, in data set [2], the “AUC … geometric mean ratio with/without EDURANT” value was found to be 0.86 and the “Cmax … geometric mean ratio with/without EDURANT” value is 0.86.
For `Cc1cc(/C=C/C#N)cc(C)c1Nc1ccnc(Nc2ccc(C#N)cc2)n1` [Rilpivirine, 4-[[4-[[4-[(E)-2-cyanoethenyl]-2,6-dimethylphenyl]amino]-2-pyrimidinyl]amino]benzonitrile], the Metabolic pathway entry with cytochrome P450 CYP3A is reported as “primarily metabolized by CYP3A”. Besides, the Metabolic pathway result with cytochrome P450 CYP3A (listed as rilpivirine) was “primarily undergoes oxidative metabolism mediated by the cytochrome P450 CYP3A system”. In data set [4] (setting [11]), the “Increase of AUC(0-∞)” value was 72% and the “Increase of Cmax” value came out at 117%. In [4] (setting [12]), the “Increase of AUC(0-∞)” value was 57% and the “Increase of Cmax” value is given as 89%. Moreover, in data set [9], the “Unchanged rilpivirine in urine” value is reported as < 1 % of dose. Further, in data set [9] (on average), the “Radioactivity retrieved in feces” value was 85%, the “Radioactivity retrieved in urine” value came out at 6.1% and the “Unchanged rilpivirine in feces” value is 25 % of the administered dose. Besides, the half-life in [10] (human, in vivo, oral, read-out: Terminal elimination half-life (converted)) was around 50 h. Besides, in data set [10] (taken with only a protein-rich nutritional drink), the “Exposures lower than when taken with a meal” value is listed as 50%.
For `CCCc1nn(C)c2c(=O)[nH]c(-c3cc(S(=O)(=O)N4CCN(C)CC4)ccc3OCC)nc12` [Sildenafil], in data set [1], the “Rilpivirine AUC, geometric mean ratio with/without coadministered drug” value was determined as 0.98; the “Rilpivirine Cmax, geometric mean ratio with/without coadministered drug” value worked out at 0.92; the “Rilpivirine Cmin, geometric mean ratio with/without coadministered drug” value was 1.04. For the same molecule, in data set [2], the “AUC … geometric mean ratio with/without EDURANT” value is given as 0.97 and the “Cmax … geometric mean ratio with/without EDURANT” value is 0.93.
